Measurements published in PubChem BioAssay (NCI).
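Assay format: 96-well plates, 48-hour exposure. GI50 is the concentration that inhibits growth by half. TGI denotes the concentration required for complete inhibition of growth.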

Columns and labels:
Test in all cases: inhibition of tumour cell growth, NCI panel, 48 h
HCT-116 colon = tested on: HCT-116 colon
OVCAR-8 ovarian = tested on: OVCAR-8 ovarian
SK-OV-3 ovarian = tested on: SK-OV-3 ovarian
U251 CNS = tested on: U251 CNS
TK-10 renal = tested on: TK-10 renal
UACC-257 melanoma = tested on: UACC-257 melanoma
CAKI-1 renal = tested on: CAKI-1 renal
NCI-H23 lung = tested on: NCI-H23 lung
OVCAR-5 ovarian = tested on: OVCAR-5 ovarian
NCI-H460 lung = tested on: NCI-H460 lung

`COC1CC2CCC(C)C(O)(O2)C(=O)C(=O)N2CCCCC2C(=O)OC(C(C)CC2CCC(O)C(OC)C2)CC(=O)C(C)C=C(C)C(O)C(OC)C(=O)C(C)CC(C)/C=C/C=C/C=C1C` (centres undefined) showed a GI50 (HCT-116 colon) of 4.34 µM, a TGI (HCT-116 colon) of 11.3 µM and a GI50 (OVCAR-8 ovarian) of less than 0.005 µM. For the same molecule, the TGI (OVCAR-8 ovarian) was 24.6 µM, the GI50 (SK-OV-3 ovarian) was less than 0.005 µM and the TGI (SK-OV-3 ovarian) was 10.7 µM. For the same molecule, the GI50 (U251 CNS) was 0.0523 µM, the TGI (U251 CNS) was 10 µM and the GI50 (TK-10 renal) was 5.62 µM. The TGI (TK-10 renal) was 19.7 µM, the GI50 (UACC-257 melanoma) was 4.46 µM and the TGI (UACC-257 melanoma) was 12.5 µM. The GI50 (CAKI-1 renal) was 2.58 µM, the TGI (CAKI-1 renal) was 47.8 µM and the GI50 (NCI-H23 lung) was 0.0688 µM. The TGI (NCI-H23 lung) was 15.5 µM, the GI50 (OVCAR-5 ovarian) was 6.41 µM and the TGI (OVCAR-5 ovarian) was 14.3 µM. For the same molecule, the GI50 (NCI-H460 lung) was less than 0.005 µM and the TGI (NCI-H460 lung) was 11.5 µM.

`CCCCCCCCCCCCCC(=O)CC(=O)c1c(O)cccc1O` gave a TGI (HCT-116 colon) greater than 100 µM, a TGI (OVCAR-8 ovarian) greater than 100 µM and a TGI (SK-OV-3 ovarian) greater than 100 µM. For the same molecule, the TGI (U251 CNS) was greater than 100 µM, the TGI (TK-10 renal) was greater than 100 µM and the TGI (UACC-257 melanoma) was 85.3 µM. It also gave a TGI (CAKI-1 renal) of 76.1 µM, a TGI (NCI-H23 lung) of 84.2 µM and a TGI (OVCAR-5 ovarian) greater than 100 µM. It also gave a TGI (NCI-H460 lung) of 91.9 µM.

Work on `N#C/C(=C/c1ccc[nH]1)P(=O)(O)O` yielded a TGI (HCT-116 colon) greater than 100 µM, a TGI (OVCAR-8 ovarian) greater than 100 µM and a TGI (SK-OV-3 ovarian) greater than 100 µM. It also gave a TGI (U251 CNS) greater than 100 µM, a TGI (TK-10 renal) greater than 100 µM and a TGI (UACC-257 melanoma) greater than 100 µM. The TGI (CAKI-1 renal) was greater than 100 µM, the TGI (NCI-H23 lung) was greater than 100 µM and the TGI (OVCAR-5 ovarian) was greater than 100 µM. The TGI (NCI-H460 lung) was greater than 100 µM.

In the case of `Cc1c(-c2c(-c3ccc(F)o3)sc3ncnc(O[C@H](Cc4ccccc4OCc4ccnn4CC(F)(F)F)C(=O)O)c23)ccc(OCCN2CCN(C)CC2)c1Cl`, the GI50 (HCT-116 colon) is reported as 3.9 µM, the TGI (HCT-116 colon) is reported as 9.23 µM and the GI50 (OVCAR-8 ovarian) is reported as 5.82 µM. The TGI (OVCAR-8 ovarian) was 15.5 µM, the GI50 (SK-OV-3 ovarian) was 5.74 µM and the TGI (SK-OV-3 ovarian) was 14.8 µM. For the same molecule, the GI50 (U251 CNS) was 4.59 µM, the TGI (U251 CNS) was 10.7 µM and the GI50 (TK-10 renal) was 5.31 µM. The TGI (TK-10 renal) was 16.2 µM, the GI50 (UACC-257 melanoma) was 5.24 µM and the TGI (UACC-257 melanoma) was 12.9 µM. For the same molecule, the GI50 (CAKI-1 renal) was 6.21 µM, the TGI (CAKI-1 renal) was 19.2 µM and the GI50 (NCI-H23 lung) was 2.59 µM. The TGI (NCI-H23 lung) was 7.6 µM, the GI50 (OVCAR-5 ovarian) was 4.81 µM and the TGI (OVCAR-5 ovarian) was 14.8 µM. For the same molecule, the GI50 (NCI-H460 lung) was 4.17 µM and the TGI (NCI-H460 lung) was 10 µM.

In the case of `C/C(=N/Nc1nc2ccccc2n1C)c1ccccn1`, the TGI (HCT-116 colon) is reported as 14.8 µM, the GI50 (OVCAR-8 ovarian) is reported as 0.118 µM and the TGI (OVCAR-8 ovarian) is reported as 16.2 µM. The GI50 (SK-OV-3 ovarian) was 0.113 µM, the TGI (SK-OV-3 ovarian) was 5.93 µM and the GI50 (U251 CNS) was 0.115 µM. For the same molecule, the TGI (U251 CNS) was 19.7 µM, the GI50 (TK-10 renal) was 0.44 µM and the TGI (TK-10 renal) was 32.6 µM. The GI50 (UACC-257 melanoma) was 0.0377 µM, the TGI (UACC-257 melanoma) was 0.489 µM and the GI50 (CAKI-1 renal) was 0.104 µM. For the same molecule, the TGI (CAKI-1 renal) was 2.14 µM, the GI50 (NCI-H23 lung) was 0.0443 µM and the TGI (NCI-H23 lung) was 19.3 µM. It also gave a GI50 (OVCAR-5 ovarian) of 0.243 µM, a TGI (OVCAR-5 ovarian) of 39.7 µM and a GI50 (NCI-H460 lung) of 0.133 µM. For the same molecule, the TGI (NCI-H460 lung) was 1.95 µM.

For `O=C1NC(O)C(c2c[nH]c3ccccc23)=C1c1c[nH]c2ccccc12` (centres undefined), the GI50 (HCT-116 colon) was greater than 25 µM, the TGI (HCT-116 colon) was greater than 25 µM and the GI50 (OVCAR-8 ovarian) was greater than 25 µM. The TGI (OVCAR-8 ovarian) was greater than 25 µM, the GI50 (SK-OV-3 ovarian) was greater than 25 µM and the TGI (SK-OV-3 ovarian) was greater than 25 µM. For the same molecule, the GI50 (U251 CNS) was greater than 25 µM, the TGI (U251 CNS) was greater than 25 µM and the GI50 (TK-10 renal) was greater than 25 µM. It also gave a TGI (TK-10 renal) greater than 25 µM, a GI50 (UACC-257 melanoma) greater than 25 µM and a TGI (UACC-257 melanoma) greater than 25 µM. For the same molecule, the GI50 (CAKI-1 renal) was greater than 25 µM, the TGI (CAKI-1 renal) was greater than 25 µM and the GI50 (NCI-H23 lung) was greater than 25 µM. For the same molecule, the TGI (NCI-H23 lung) was greater than 25 µM, the GI50 (OVCAR-5 ovarian) was greater than 25 µM and the TGI (OVCAR-5 ovarian) was greater than 25 µM. The GI50 (NCI-H460 lung) was greater than 25 µM and the TGI (NCI-H460 lung) was greater than 25 µM.

`O=C(CN1CCN(CCCOc2c(-c3ccccc3)oc3ccccc3c2=O)CC1)Nc1ccc(Cl)cc1C(=O)c1ccccc1Cl` was tested, and the GI50 (HCT-116 colon) was 4.44 µM, the TGI (HCT-116 colon) was 16.6 µM and the GI50 (OVCAR-8 ovarian) was 4.33 µM. For the same molecule, the TGI (OVCAR-8 ovarian) was 22.2 µM, the GI50 (SK-OV-3 ovarian) was 15.1 µM and the TGI (SK-OV-3 ovarian) was 54.2 µM. For the same molecule, the GI50 (U251 CNS) was 5.86 µM, the TGI (U251 CNS) was 19.1 µM and the GI50 (TK-10 renal) was 16.6 µM. For the same molecule, the TGI (TK-10 renal) was 54.1 µM, the GI50 (UACC-257 melanoma) was 4.59 µM and the TGI (UACC-257 melanoma) was 20.5 µM. It also gave a GI50 (CAKI-1 renal) of 12.9 µM, a TGI (CAKI-1 renal) of 36.9 µM and a GI50 (NCI-H23 lung) of 12.4 µM. It also gave a TGI (NCI-H23 lung) of 41.9 µM, a GI50 (OVCAR-5 ovarian) of 27.2 µM and a TGI (OVCAR-5 ovarian) of 90.8 µM. The GI50 (NCI-H460 lung) was 3.64 µM and the TGI (NCI-H460 lung) was greater than 100 µM.

With `COc1ccc2c(=O)c3ccoc3n(CC=C(C)C)c2c1` the TGI (HCT-116 colon) was greater than 100 µM, the TGI (OVCAR-8 ovarian) was greater than 100 µM and the TGI (SK-OV-3 ovarian) was greater than 100 µM. For the same molecule, the TGI (U251 CNS) was greater than 100 µM, the TGI (TK-10 renal) was greater than 100 µM and the TGI (UACC-257 melanoma) was greater than 100 µM. The TGI (CAKI-1 renal) was 9.83 µM, the TGI (NCI-H23 lung) was greater than 100 µM and the TGI (OVCAR-5 ovarian) was greater than 100 µM. The TGI (NCI-H460 lung) was greater than 100 µM.

In the case of `COc1ccc(/C=C/C(=O)c2ccc(SC)cc2)cc1OC`, the GI50 (HCT-116 colon) is reported as 2.65 µM, the TGI (HCT-116 colon) is reported as 10.1 µM and the GI50 (OVCAR-8 ovarian) is reported as 16.5 µM. It also gave a TGI (OVCAR-8 ovarian) of 44 µM, a GI50 (SK-OV-3 ovarian) of 34.1 µM and a TGI (SK-OV-3 ovarian) greater than 100 µM. For the same molecule, the GI50 (U251 CNS) was 3.53 µM, the TGI (U251 CNS) was 13.8 µM and the GI50 (TK-10 renal) was 14.7 µM. For the same molecule, the TGI (TK-10 renal) was 32.8 µM, the GI50 (UACC-257 melanoma) was 17 µM and the TGI (UACC-257 melanoma) was 30.9 µM. It also gave a GI50 (CAKI-1 renal) of 7.5 µM, a TGI (CAKI-1 renal) of 25.6 µM and a GI50 (NCI-H23 lung) of 2.82 µM. For the same molecule, the TGI (NCI-H23 lung) was 10.4 µM, the GI50 (OVCAR-5 ovarian) was 16.4 µM and the TGI (OVCAR-5 ovarian) was 31.7 µM. For the same molecule, the GI50 (NCI-H460 lung) was 70.6 µM and the TGI (NCI-H460 lung) was greater than 100 µM.

`CC(C)[C@H](CO)Nc1nc(Nc2ccc(C(=O)NCCNS(=O)(=O)c3cccc4c(N(C)C)cccc34)c(Cl)c2)c2ncn(C(C)C)c2n1` gave a GI50 (HCT-116 colon) of 2.57 µM, a TGI (HCT-116 colon) greater than 100 µM and a GI50 (OVCAR-8 ovarian) of 3.18 µM. For the same molecule, the TGI (OVCAR-8 ovarian) was greater than 100 µM, the GI50 (SK-OV-3 ovarian) was greater than 100 µM and the TGI (SK-OV-3 ovarian) was greater than 100 µM. It also gave a GI50 (U251 CNS) of 2.72 µM, a TGI (U251 CNS) greater than 100 µM and a GI50 (TK-10 renal) of 7.62 µM. The TGI (TK-10 renal) was greater than 100 µM, the GI50 (UACC-257 melanoma) was 2.66 µM and the TGI (UACC-257 melanoma) was greater than 100 µM. It also gave a GI50 (CAKI-1 renal) of 5.78 µM, a TGI (CAKI-1 renal) greater than 100 µM and a GI50 (NCI-H23 lung) of 3 µM. The TGI (NCI-H23 lung) was greater than 36.2 µM, the GI50 (OVCAR-5 ovarian) was 5.18 µM and the TGI (OVCAR-5 ovarian) was greater than 100 µM. The GI50 (NCI-H460 lung) was 3.45 µM and the TGI (NCI-H460 lung) was greater than 100 µM.

Work on `COC(=O)c1c2c(c(C)[n+]([O-])c1C)C(=O)C=C(NCc1ccc(F)c(Cl)c1)C2=O` yielded a GI50 (HCT-116 colon) of 0.13 µM, a TGI (HCT-116 colon) of 1.03 µM and a GI50 (OVCAR-8 ovarian) of 0.155 µM. For the same molecule, the TGI (OVCAR-8 ovarian) was 1.14 µM, the GI50 (SK-OV-3 ovarian) was 1.51 µM and the TGI (SK-OV-3 ovarian) was 3.38 µM. It also gave a GI50 (U251 CNS) of 0.291 µM, a TGI (U251 CNS) of 1.44 µM and a GI50 (TK-10 renal) of 2.22 µM. It also gave a TGI (TK-10 renal) of 5.49 µM, a GI50 (UACC-257 melanoma) of 0.171 µM and a TGI (UACC-257 melanoma) of 0.64 µM. It also gave a GI50 (CAKI-1 renal) of 0.0559 µM, a TGI (CAKI-1 renal) of 1.9 µM and a GI50 (NCI-H23 lung) of 0.412 µM. For the same molecule, the TGI (NCI-H23 lung) was 2.11 µM, the GI50 (OVCAR-5 ovarian) was 1.16 µM and the TGI (OVCAR-5 ovarian) was 2.69 µM. The GI50 (NCI-H460 lung) was 0.264 µM and the TGI (NCI-H460 lung) was 1.4 µM.
